Source: patent publication US20120015056A1, “COMPOSITION COMPRISING EXTRACTS OR FRACTIONS OF SPECIFIC PLANTS, USE THEREOF AND PROCESS FOR PREPARING THE EXTRACTS” (priority 2010, published 2012)

Experiments:
Assay type in all cases: cell-based
HepG2 (liver cancer) = test: MTT assay, viability of HepG2 at 500 nm; parameters: value of the treated group, Mean value: unit not given here
Method: (§1) Similarly, MTT assay was performed for lung cancer cell line A549 and liver cancer cell line HepG2. But, MTT solutions were added instead of XTT solutions; as a culture medium, RPMI1640 with L-glutamine (300 mg/L), 25 mM HEPES and 25 mM NaHCO3 90% and heat-inactivated fetal bovine serum (FBS) 10% was used for A549, and minimum essential medium, 25 mM HEPES and 25 mM NaHCO3 90% and heat-inactivated fetal bovine serum (FBS) 10% was used for HepG2; and MTT values were measured at 1 d, 2 d, 3 d and 4 d, respectively.
(§2) In the following, the values for the composition of the invention indicate the mean value of values obtained using the extracts of the Examples 1 to 3.
The following Table 7 and FIG. 12 show the value of the treated group determined in cell line HepG2.

A549 (lung cancer) = test: MTT assay, viability of A549 at 500 nm; parameters: value of the treated group, Mean value: unit not given here
Method: as §1, §2
The following Table 6 and FIG. 11 show the value of the treated group determined in cell line A549.

TTU-1 (breast cancer) = test: XTT assay, viability of TTU-1 at 450 nm
Method: Each of 5×10^3 breast cancer cells MDA-MB-231 and TTU-1 were seeded in a 96-well flat-bottomed microplate, and cultured in CO2 incubator. Cells were seeded in a 96-well tissue culture plate at a density of 10,000 cells for normal cells and 5,000 cells for cancer cells. DMEM plus 10% fetal bovine serum was used as a culture medium. […] […] After that, absorbance value were measured using microplate spectrophotometer at a wavelength of 450 nm. In addition, Annexin-V/PI-stained MDA-MB-231 and TTU-1 cells were photographed and observed.

[1] = system: MDA-MB-231 (breast cancer); test: XTT assay, viability of MDA-MB-231 at 450 nm; parameters: key to value of [the treated group−the blank group], Mean value: absorbance at 450 nm, treated minus blank
Method: Each of 5×10^3 breast cancer cells MDA-MB-231 and TTU-1 were seeded in a 96-well flat-bottomed microplate, and cultured in CO2 incubator. Cells were seeded in a 96-well tissue culture plate at a density of 10,000 cells for normal cells and 5,000 cells for cancer cells. DMEM plus 10% fetal bovine serum was used as a culture medium. At 24 hours after seeding, the extracts obtained in the Examples 1 to 3 were added to each well. At 12 hours after added the extracts, XTT solutions were added and then the cells were incubated for 2 hours. After that, absorbance value were measured using microplate spectrophotometer at a wavelength of 450 nm. In addition, Annexin-V/PI-stained MDA-MB-231 and TTU-1 cells were photographed and observed.
as §2
The following Table 4 and FIG. 9 show the value of [the treated group−the blank group] determined in cell line MDA-MB-231.

Q: Which results are given for O=c1[nH]cc(F)c(=O)[nH]1 [Example 5-FU, 5-FU]?
A: value of the treated group, Mean value (HepG2 (liver cancer); 1,000 ppm, 24 h): 2.867; value of the treated group, Mean value (HepG2 (liver cancer); 1,000 ppm, 48 h): 1.998; value of the treated group, Mean value (HepG2 (liver cancer); 1,000 ppm, 72 h): 1.853; value of the treated group, Mean value (HepG2 (liver cancer); 1,000 ppm, 96 h): 0.938; value of the treated group, Mean value (A549 (lung cancer); 1,000 ppm, 24 h): 2.298; value of the treated group, Mean value (A549 (lung cancer); 1,000 ppm, 48 h): 1.697; value of the treated group, Mean value (A549 (lung cancer); 1,000 ppm, 72 h): 0.863; value of the treated group, Mean value (A549 (lung cancer); 1,000 ppm, 96 h): 0.42

Q: With CC(=O)O[C@H]1C(=O)[C@@]2(C)[C@H]([C@H](OC(=O)c3ccccc3)[C@]3(O)C[C@H](OC(=O)[C@H](O)[C@@H](NC(=O)c4ccccc4)c4ccccc4)C(C)=C1C3(C)C)[C@]1(OC(C)=O)CO[C@@H]1C[C@@H]2O [Taxol] as the compound, how does the “course of the value as time goes by (FIG. 12)” value (HepG2 (liver cancer)) read?
A: increasing

Q: And the “value of the treated group, Mean value” (HepG2 (liver cancer); 35.1 uM/ml, 24 h)?
A: 2.73

Q: What about the “value of the treated group, Mean value” (HepG2 (liver cancer); 35.1 uM/ml, 48 h) of the same compound?
A: 2.604

Q: And the “value of the treated group, Mean value” (HepG2 (liver cancer); 35.1 uM/ml, 72 h)?
A: 2.506

Q: What about the “value of the treated group, Mean value” (HepG2 (liver cancer); 35.1 uM/ml, 96 h) of the same compound?
A: 2.546

Q: What about the “value of the treated group, Mean value” (HepG2 (liver cancer); 70.2 uM/ml, 24 h) of the same compound?
A: 2.71

Q: And the “value of the treated group, Mean value” (HepG2 (liver cancer); 70.2 uM/ml, 48 h)?
A: 2.595

Q: What about the “value of the treated group, Mean value” (HepG2 (liver cancer); 70.2 uM/ml, 72 h) of the same compound?
A: 2.466

Q: What about the “value of the treated group, Mean value” (HepG2 (liver cancer); 70.2 uM/ml, 96 h) of the same compound?
A: 2.389

Q: What about the “course of the value as time goes by (FIG. 10)” value (TTU-1 (breast cancer)) of the same compound?
A: increasing

Q: And the “value of [the treated group−the blank group], Mean value” (TTU-1 (breast cancer); 1.2 × 10^−7M, 12 h)?
A: 0.079

Q: And the “value of [the treated group−the blank group], Mean value” (TTU-1 (breast cancer); 1.2 × 10^−7M, 84 h)?
A: 0.123

Q: And the “value of [the treated group−the blank group], Mean value” (TTU-1 (breast cancer); 1.2 × 10^−7M, 108 h)?
A: 0.012

Q: And the “value of [the treated group−the blank group], Mean value” (TTU-1 (breast cancer); 1.2 × 10^−7M, 132 h)?
A: 0.084

Q: What about the “value of [the treated group−the blank group], Mean value” (TTU-1 (breast cancer); 2.5 × 10^−6M, 12 h) of the same compound?
A: 0.067

Q: What about the “value of [the treated group−the blank group], Mean value” (TTU-1 (breast cancer); 2.5 × 10^−6M, 108 h) of the same compound?
A: −0.002

Q: And the “value of [the treated group−the blank group], Mean value” (TTU-1 (breast cancer); 2.5 × 10^−6M, 132 h)?
A: 0.035

Q: What about the “course of the value as time goes by (FIG. 11)” value (A549 (lung cancer)) of the same compound?
A: increasing

Q: What about the “value of the treated group, Mean value” (A549 (lung cancer); 35.1 uM/ml, 24 h) of the same compound?
A: 2.438

Q: What about the “value of the treated group, Mean value” (A549 (lung cancer); 35.1 uM/ml, 48 h) of the same compound?
A: 2.753

Q: And the “value of the treated group, Mean value” (A549 (lung cancer); 35.1 uM/ml, 72 h)?
A: 2.6

Q: And the “value of the treated group, Mean value” (A549 (lung cancer); 35.1 uM/ml, 96 h)?
A: 2.934

Q: What about the “value of the treated group, Mean value” (A549 (lung cancer); 70.2 uM/ml, 24 h) of the same compound?
A: 2.488

Q: And the “value of the treated group, Mean value” (A549 (lung cancer); 70.2 uM/ml, 48 h)?
A: 2.911

Q: What about the “value of the treated group, Mean value” (A549 (lung cancer); 70.2 uM/ml, 72 h) of the same compound?
A: 2.691

Q: And the “value of the treated group, Mean value” (A549 (lung cancer); 70.2 uM/ml, 96 h)?
A: 2.98

Q: What about the “course of the value as time goes by (FIG. 9)” value [1] of the same compound?
A: increasing

Q: What about the “value of [the treated group−the blank group], Mean value” ([1]; 1.2 × 10^−7M, 12 h) of the same compound?
A: 0.074

Q: What about the “value of [the treated group−the blank group], Mean value” ([1]; 1.2 × 10^−7M, 84 h) of the same compound?
A: 0.107

Q: And the “value of [the treated group−the blank group], Mean value” ([1]; 1.2 × 10^−7M, 108 h)?
A: −0.006

Q: What about the “value of [the treated group−the blank group], Mean value” ([1]; 1.2 × 10^−7M, 132 h) of the same compound?
A: 0.034

Q: What about the “value of [the treated group−the blank group], Mean value” ([1]; 2.5 × 10^−6M, 12 h) of the same compound?
A: 0.076

Q: And the “value of [the treated group−the blank group], Mean value” ([1]; 2.5 × 10^−6M, 84 h)?
A: 0.085

Q: What about the “value of [the treated group−the blank group], Mean value” ([1]; 2.5 × 10^−6M, 108 h) of the same compound?
A: 0.024

Q: What about the “value of [the treated group−the blank group], Mean value” ([1]; 2.5 × 10^−6M, 132 h) of the same compound?
A: −0.007
